Measured values taken from patent US20120263794A1, “TREATMENT OF EYE DISEASES USING ENCAPSULATED CELLS ENCODING AND SECRETING A NEUROPROTECTIVE FACTOR AND/OR AN ANTI-ANGIOGENIC FACTOR” (BIOCOMPATIBLE UK LTD., priority 2009, published 2012).
Ends that are not written are not given here.

Legend:
DPP-IV = target: T1, DPP-IV (Homo sapiens, UniProt P27487); assay: In vitro human plasma stability of GLP-1CM peptides; assay type: in vitro ADME; conditions: 20 ng/ml, 37° C., 5% CO2, 3 hours, in contrast to native GLP-1(7-37)
T1 construct: incubated at concentrations of 20 ng/ml with human plasma; from tissue; host or cells: human plasma
Experimental: Synthetic GLP-1 peptides (SEQ ID NO:1syn, SEQ ID SEQ ID NO:7rec, SEQ ID NO:8syn) were incubated at concentrations of 20 ng/ml with human plasma at 37° C. and 5% CO2 for 3 hours. Dipeptidylpeptidase activity of the plasma was inhibited by a DPP-IV inhibitor (#DPP4, Biotrend).

Rin-5F cells = assay: Anti-apoptotic efficacy, cycloheximid-induced apoptosis, AlamarBlue; assay type: cell-based, rat; conditions: 24 hours
Experimental: Apoptosis is induced in RIN-5F cells by addition of the protein biosynthesis inhibitor cycloheximid (CHX) in a final of 10 μg/ml and 100 μg/ml respectively.
40.000 Rin-5F cells were seeded per 96 well and cultivated for 2 days in RPMI supplemented with 1% L-Glutamin and 10% fetal calf serum. […] After 24 hours cell viability is quantified using AlamarBlue.

T1 sequence (P27487 whole entry): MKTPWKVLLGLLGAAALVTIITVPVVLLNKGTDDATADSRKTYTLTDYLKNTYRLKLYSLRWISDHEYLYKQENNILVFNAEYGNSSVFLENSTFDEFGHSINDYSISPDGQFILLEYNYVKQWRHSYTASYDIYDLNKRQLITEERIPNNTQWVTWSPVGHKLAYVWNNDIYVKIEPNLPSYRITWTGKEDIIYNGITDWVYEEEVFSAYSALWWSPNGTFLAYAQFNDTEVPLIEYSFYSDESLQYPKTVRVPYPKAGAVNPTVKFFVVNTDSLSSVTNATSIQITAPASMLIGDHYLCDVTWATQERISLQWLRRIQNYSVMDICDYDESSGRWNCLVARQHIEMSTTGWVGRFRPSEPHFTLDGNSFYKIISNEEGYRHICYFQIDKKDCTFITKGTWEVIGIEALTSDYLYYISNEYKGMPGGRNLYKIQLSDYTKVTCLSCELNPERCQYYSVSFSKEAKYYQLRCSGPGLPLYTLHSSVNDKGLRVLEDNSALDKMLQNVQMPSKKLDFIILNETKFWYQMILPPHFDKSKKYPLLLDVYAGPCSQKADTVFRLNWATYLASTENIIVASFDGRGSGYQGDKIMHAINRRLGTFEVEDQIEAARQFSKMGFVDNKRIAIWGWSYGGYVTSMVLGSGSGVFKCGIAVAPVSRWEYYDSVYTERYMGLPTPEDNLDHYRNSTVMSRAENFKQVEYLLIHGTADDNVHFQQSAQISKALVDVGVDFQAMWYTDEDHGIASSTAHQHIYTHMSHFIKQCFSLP

Molecule	stability in human plasma (active GLP, ELISA) (DPP-IV)	cell viability (Rin-5F cells; different concentrations, CHX 10 μg/ml and 100 μg/ml)	anti-apoptotic effect (Rin-5F cells; in the presence of 1 nM, cycloheximid, serumfree, p<0.01)
HAEGTFTSDVSSYLEGQAAKEFIAWLVKGRGRRDFPEEVAIAEELG [SEQ ID NO:8, GLP-1 (7-37)-IP2]	significantly stabilized		
CM1: C-terminally elongated dimeric GLP-1 fusion peptide GLP-1 (7-37)-IP2-GLP-1 (7-37) produced by construct #217		significant (p<0.01) increase of cell viability	significant anti-apoptotic effect
GLP-1 (7-37)-IP2-RR-GLP1(7-37) [SEQ ID NO:6]	significantly stabilized		
GLP-1 (7-37)-IP2-RR-GLP2 (protein, Description of sequence SEQ ID No 7 (ID7rec, CM2) corresponds to GLP-1(7-37)-IP2-RR-GLP2, 83 aa, 9,4 kD, 83 aa, recombinant) HAEGTFTSDVSSYLEGQAAKEFIAWLVKGRGRRDFPEEVAIAEELGRRHADGSFSDEMSTILDNLATRDFINWLIQTKITDKK	significantly stabilized		
